Reference: US10294202B2, “Pyrrolidinones as herbicides” (FMC Corporation, priority 2013, dated 2019)

Tests used:
galium = test: Test C pre-/postemergence herbicide test; assay type: in vivo, Galium aparine; conditions: Preemergence
Summary of the method: (§1)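 Compound solutions contained surfactant in a non-phytotoxic solvent. These were sprayed onto pots of loam/sand sown with seeds, and onto young plants (2 to 18 cm, 1- to 4-leaf) in sphagnum peat–vermiculite mix. Visual injury scores (0 none, 100 complete control) were recorded after 13 to 15 days.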

pigweed = test: Test A pre-/postemergence herbicide test; assay type: in vivo, Amaranthus retroflexus
Summary of the method: (§2)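 Formulated compound (non-phytotoxic solvent, surfactant) sprayed pre- onto soil of seeded loam/sand pots or post- onto seedlings at 1–2 leaves; ~10 d greenhouse; 0–100 visual control rating versus untreated.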

johnsongrass = test: Test C pre-/postemergence herbicide test; assay type: in vivo, Sorghum halepense
Summary of the method: as §1

ryegrass, Italian = test: Test C pre-/postemergence herbicide test; assay type: in vivo, Lolium multiflorum
Summary of the method: as §1

barnyardgrass = test: Test A pre-/postemergence herbicide test; assay type: in vivo, Echinochloa crus-galli
Summary of the method: as §2

corn [1] = test: Test A pre-/postemergence herbicide test; assay type: in vivo, Zea mays
Summary of the method: as §2

wheat (winter wheat) = test: Test C pre-/postemergence herbicide test; assay type: in vivo, Triticum aestivum
Summary of the method: as §1

corn [2] = test: Test C pre-/postemergence herbicide test; assay type: in vivo, Zea mays
Summary of the method: as §1

crabgrass, large = test: Test C pre-/postemergence herbicide test; assay type: in vivo, Digitaria sanguinalis
Summary of the method: as §1

morningglory = test: Test C pre-/postemergence herbicide test; assay type: in vivo, Ipomoea coccinea
Summary of the method: as §1

soybean = test: Test C pre-/postemergence herbicide test; assay type: in vivo, Glycine max
Summary of the method: as §1

foxtail, giant = test: Test C pre-/postemergence herbicide test; assay type: in vivo, Setaria faberii
Summary of the method: as §1

wheat = test: Test A pre-/postemergence herbicide test; assay type: in vivo, Triticum aestivum
Summary of the method: as §2

[3] = Postemergence, 125 g ai/ha, 0 to 100 scale, 0 no effect, 100 complete control
[4] = Postemergence, 500 g ai/ha, 0 to 100 scale (0 no effect, 100 complete control)
[5] = Preemergence, 125 g ai/ha, visual rating on 0 to 100 scale (0 no effect, 100 complete control)
[6] = preemergence, 500 g ai/ha, 0 to 100 scale
[7] = Postemergence, 31 g ai/ha, scale 0 (no effect) to 100 (complete control)
[8] = Postemergence, 62 g ai/ha, scale 0 to 100 (0 no effect, 100 complete control)
[9] = Postemergence, 125 g ai/ha, scale 0 to 100 (0 no effect, 100 complete control)
[10] = Postemergence, 250 g ai/ha, scale 0 to 100 (0 no effect, 100 complete control)
[11] = Preemergence, 31 g ai/ha, scale 0 to 100, 0 is no effect and 100 is complete control
[12] = Preemergence, 62 g ai/ha, scale 0 to 100
[13] = Preemergence, 125 g ai/ha, scale 0 to 100 (0 no effect, 100 complete control)

O=C1NCC(c2ccccc2)C1C(=O)Nc1ccccc1F (racemic) [Compound 81]
37: Plant response rating, Foxtail, Giant (foxtail, giant; [13])
7: Plant response rating, Crabgrass, Large (crabgrass, large; [10]) | Plant response rating, Foxtail, Giant (foxtail, giant; [10])
20: Plant response rating, Wheat (wheat; [6])
90: Plant response rating, Crabgrass, Large (crabgrass, large; [13])
80: Plant response rating, Barnyardgrass (barnyardgrass; [4]) | Plant response rating, Barnyardgrass (barnyardgrass; preemergence, 500 g ai/ha, 0 to 100 scale (0 no effect, 100 complete control))
17: Plant response rating, Foxtail, Giant (foxtail, giant; [12])
95: Plant response rating (scale of 0 to 100), Crabgrass, Large (crabgrass, large; Preemergence, 250 g ai/ha)
73: Plant response rating (scale of 0 to 100), Foxtail, Giant (foxtail, giant; Preemergence, 250 g ai/ha)
0: Galium plant response rating (galium; 31 g ai/ha, scale 0 to 100, 0 is no effect and 100 is complete control) | Plant response rating, Galium (galium; 62 g ai/ha, scale 0 to 100) | Plant response rating, Galium (galium; 125 g ai/ha, scale 0 to 100 (0 no effect, 100 complete control)) | Plant response rating (scale of 0 to 100), Galium (galium; 250 g ai/ha) | Plant response rating, Pigweed (pigweed; [3]) | Plant response rating, Pigweed (pigweed; [4]) | Pigweed plant response rating (pigweed; [5]) | Plant response rating, Pigweed (pigweed; [6]) | Plant response rating, Johnsongrass (johnsongrass; [7]) | Plant response rating, Johnsongrass (johnsongrass; [8]) | Plant response rating, Johnsongrass (johnsongrass; [9]) | Plant response rating, Johnsongrass (johnsongrass; [10]) | Johnsongrass plant response rating (johnsongrass; [11]) | Plant response rating, Johnsongrass (johnsongrass; [12]) | Plant response rating, Johnsongrass (johnsongrass; [13]) | Plant response rating (scale of 0 to 100), Johnsongrass (johnsongrass; Preemergence, 250 g ai/ha) | Plant response rating, Ryegrass, Italian (ryegrass, Italian; [7]) | Plant response rating, Ryegrass, Italian (ryegrass, Italian; [8]) | Plant response rating, Ryegrass, Italian (ryegrass, Italian; [9]) | Plant response rating, Ryegrass, Italian (ryegrass, Italian; [10]) | Ryegrass, Italian plant response rating (ryegrass, Italian; [11]) | Plant response rating, Ryegrass, Italian (ryegrass, Italian; [12]) | Plant response rating, Ryegrass, Italian (ryegrass, Italian; [13]) | Plant response rating (scale of 0 to 100), Ryegrass, Italian (ryegrass, Italian; Preemergence, 250 g ai/ha) | Plant response rating, Corn (corn [1]; [3]) | Plant response rating, Corn (corn [1]; [4]) | Corn plant response rating (corn [1]; [5]) | Plant response rating, Corn (corn [1]; [6]) | Plant response rating, Wheat (wheat (winter wheat); [7]) | Plant response rating, Wheat (wheat (winter wheat); [8]) | Plant response rating, Wheat (wheat (winter wheat); [9]) | Plant response rating, Wheat (wheat (winter wheat); [10]) | Wheat plant response rating (wheat (winter wheat); [11]) | Plant response rating, Wheat (wheat (winter wheat); [12]) | Plant response rating, Wheat (wheat (winter wheat); [13]) | Plant response rating (scale of 0 to 100), Wheat (wheat (winter wheat); Preemergence, 250 g ai/ha) | Plant response rating, Corn (corn [2]; [7]) | Plant response rating, Corn (corn [2]; [8]) | Plant response rating, Corn (corn [2]; [9]) | Plant response rating, Corn (corn [2]; [10]) | Corn plant response rating (corn [2]; [11]) | Plant response rating, Corn (corn [2]; [12]) | Plant response rating, Corn (corn [2]; [13]) | Plant response rating (scale of 0 to 100), Corn (corn [2]; Preemergence, 250 g ai/ha) | Plant response rating, Crabgrass, Large (crabgrass, large; [7]) | Plant response rating, Crabgrass, Large (crabgrass, large; [8]) | Plant response rating, Morningglory (morningglory; [7]) | Plant response rating, Morningglory (morningglory; [8]) | Plant response rating, Morningglory (morningglory; [9]) | Plant response rating, Morningglory (morningglory; [10]) | Morningglory plant response rating (morningglory; [11]) | Plant response rating, Morningglory (morningglory; [12]) | Plant response rating, Morningglory (morningglory; [13]) | Plant response rating (scale of 0 to 100), Morningglory (morningglory; Preemergence, 250 g ai/ha) | Plant response rating, Soybean (soybean; [7]) | Soybean plant response rating (soybean; [11]) | Plant response rating, Soybean (soybean; [12]) | Plant response rating, Soybean (soybean; [13]) | Plant response rating (scale of 0 to 100), Soybean (soybean; Preemergence, 250 g ai/ha) | Plant response rating, Foxtail, Giant (foxtail, giant; [7]) | Plant response rating, Foxtail, Giant (foxtail, giant; [8]) | Plant response rating, Foxtail, Giant (foxtail, giant; [9]) | Foxtail, Giant plant response rating (foxtail, giant; [11]) | Plant response rating, Wheat (wheat; [3]) | Plant response rating, Wheat (wheat; [4]) | Wheat plant response rating (wheat; [5])
30: Plant response rating, Barnyardgrass (barnyardgrass; [3])
75: Plant response rating, Crabgrass, Large (crabgrass, large; [12])
3: Plant response rating, Crabgrass, Large (crabgrass, large; [9]) | Plant response rating, Soybean (soybean; [8]) | Plant response rating, Soybean (soybean; [9])
40: Barnyardgrass plant response rating (barnyardgrass; [5])
8: Plant response rating, Soybean (soybean; [10])
50: Crabgrass, Large plant response rating (crabgrass, large; [11])
